Measured values published in patent US10894790B2, “Production method of thiazole derivative” (KYOWA KIRIN CO., LTD., priority 2015, dated 2021).
Like-named read-outs stand apart in the source and are kept apart here.

How the values were obtained:
[1] = Stability test (preservation of crystal, powder X-ray diffraction); format: physicochemical
Experimental: Powder X-ray diffraction (permeation method) was measured by pulverizing a sample in an agate mortar, placing an appropriate amount thereof on a sample plate, and measuring diffraction peaks by changing the diffraction angle 2θ from 5° to 40°. The irradiate X ray used was copper Kα ray (CuKα ray), and tube voltage was set to […], tube electric current was set to 40 mA, step angle was set to 0.017°, and counting time was set to 0.56°/sec. The thermal analysis was performed by placing about 2 mg of a sample on an aluminum cell, and measuring differential scanning calorie (DSC) at a temperature rise rate of 10° C./min.
The A crystal obtained in Example 12 was preserved under the conditions of 40° C./75% RH (relative humidity) and 40° C./90% RH (relative humidity) for 6 months each, and powder X-ray diffraction was measured. […] It was confirmed that A crystal is stable even after preservation for a long term under humidified conditions of 40° C./75% RH (relative humidity) and 40° C./90% RH (relative humidity).
The HA crystal obtained in Example 11 was preserved for 2 weeks at 60° C., and then powder X-ray diffraction was measured. […] That is, a part of HA crystal is considered to undergo crystal transition to A crystal at 60° C.

[2] = Absorbability test: plasma kinetics of compound IA after oral administration; format: in vivo; details: male rats; for AUC0→∞ / Cmax / t1/2 / tmax / AUC(0-inf) / half-life: plasma compound IA
Experimental: HA crystal and A crystal obtained in Examples 11 and 12 were orally administered to male rats respectively, and plasma kinetics of compound IA were evaluated.

[3] = male, rat, plasma, po, 10 mg/kg

Cc1ccc(C(=O)Nc2nc(-c3ccco3)c(C(=O)C3CCOCC3)s2)cn1 [A crystal]
change of powder X-ray diffraction pattern after preservation ([1]; 40° C./75% RH, 6 months): did not show any change | change of powder X-ray diffraction pattern after preservation ([1]; 40° C./90% RH, 6 months): did not show any change | bioavailability (in words) [2]: good bioavailability | rise of plasma concentration, A crystal compared with HA crystal [2]: increased more rapidly | BA ([2]; dose 1 mg/kg): 53.7% | AUC0→∞ ([2]; dose 1 mg/kg): 5350 ng·h/mL | Cmax ([2]; dose 1 mg/kg): 1410 ± 270 ng/mL | t1/2 ([2]; dose 1 mg/kg): 2.26 ± 0.26 h | tmax ([2]; dose 1 mg/kg): 1.00 ± 0.00 h | BA ([2]; dose 10 mg/kg): 51.2% | AUC0→∞ ([2]; dose 10 mg/kg): 51000 ng·h/mL | Cmax ([2]; dose 10 mg/kg): 11400 ± 1400 ng/mL | t1/2 ([2]; dose 10 mg/kg): 1.77 ± 0.09 h | tmax ([2]; dose 10 mg/kg): 1.67 ± 0.58 h

Cc1ccc(C(=O)Nc2nc(-c3ccco3)c(C(=O)C3CCOCC3)s2)cn1 [HA crystal]
change of powder X-ray diffraction pattern after preservation ([1]; 60° C., 2 weeks): show a diffraction peak characteristic of A crystal | bioavailability (in words) [2]: good bioavailability | BA ([2]; dose 1 mg/kg): 59.5% | BA ([2]; dose 10 mg/kg): 56.8% | Cmax ([2]; male, rat, plasma, po, 1 mg/kg, dose 1 mg/kg, read-out: Cmax): 1500 ± 100 ng/mL | tmax ([2]; male, rat, plasma, po, 1 mg/kg, dose 1 mg/kg, read-out: tmax): 1.33 ± 0.58 h | AUC(0-inf) ([2]; male, rat, plasma, po, 1 mg/kg): 5930 ng·h/mL | half-life ([2]; male, rat, plasma, po, 1 mg/kg): 2.08 ± 0.13 h | Cmax ([2]; male, rat, plasma, po, 10 mg/kg, dose 10 mg/kg, read-out: Cmax): 10900 ± 800 ng/mL | tmax ([2]; male, rat, plasma, po, 10 mg/kg, dose 10 mg/kg, read-out: tmax): 2 h | AUC(0-inf) [2, 3]: 56600 ng·h/mL | half-life [2, 3]: 3.43 ± 1.14 h
